Measurements reported in ChEMBL document CHEMBL1130554, “BMS-200475, a novel carbocyclic 2-deoxyguanosine analog with potent and selective anti-hepatitis B virus activity in vitro” (Bioorg Med Chem Lett, 1997).
pEC50: −log10 of the molar value.

Legend:
HepG2 [1] = assay: Tested for the effective concentration required to inhibit HBV in HepG2.2.15 human liver cells; type: functional, cell-based
CEM-SS [2] = assay: Tested for cytotoxic concentration against human immunodeficiency virus (HIV) in CEM-SS cells; type: functional
CEM-SS [3] = assay: Tested for effective concentration to inhibit human immunodeficiency virus (HIV) in CEM-SS cells; type: functional, cell-based
Hepatitis B virus [4] = assay: Tested for cytotoxic concentration against hepatitis B virus; type: functional
Hepatitis B virus [5] = assay: Tested effective dose against hepatitis B virus in vitro; type: functional; details: read-out: ED50 (the source's name)
HFF = assay: Tested for effective concentration required to inhibit human cytomegalovirus (HCMV) in HFF cells; type: functional, cell-based
HepG2 [6] = assay: Tested for the cytotoxicity against hepatitis B virus (HBV) in HepG2.2.15 cells; type: functional; details: Homo sapiens
[7] = Tested for effective concentration required to inhibit of influenza virus in MDBK cells; type: functional, cell-based, Bos taurus
[8] = Tested for cytotoxic concentration against influenza virus in MDBK cells; type: functional; details: Bos taurus
WI-38 [9] = assay: Tested for cytotoxic concentration against herpes simplex virus type 1 (HSV-1) in WI-38 cells; type: functional; details: Homo sapiens
WI-38 [10] = assay: Tested for cytotoxic concentration against varicella zoster virus (VZV) in WI-38 cells; type: functional; details: Homo sapiens
WI-38 [11] = assay: Tested for effective concentration required to inhibit herpes simplex virus type 1 (HSV-1) in WI-38 cells; type: functional, cell-based; details: Homo sapiens
WI-38 [12] = assay: Tested for effective concentration required to inhibit varicella zoster virus (VZV) in WI-38 cells; 30-60; type: functional, cell-based; details: Homo sapiens

Nc1nc(O)c2ncn(CCC(CO)CO)c2n1 [PENCICLOVIR]
pEC50 (HepG2 [1]): ≤ 4.00

C=C1[C@H](CO)[C@@H](O)C[C@@H]1n1cc(C)c(=O)[nH]c1=O
pEC50 (HepG2 [1]): < 4.00

Nc1ccn([C@@H]2CS[C@H](CO)O2)c(=O)n1 [LAMIVUDINE]
pEC50 (HepG2 [1]): 6.70

C=C1[C@@H](CO)[C@H](O)C[C@H]1n1cnc2c(O)nc(N)nc21
pEC50 (HepG2 [1]): 4.00

C=C1[C@H](CO)[C@@H](O)C[C@@H]1n1cc(I)c(=O)[nH]c1=O
pEC50 (HepG2 [1]): 4.98

Nc1nc(O)c2ncn([C@@H]3C[C@H](CO)[C@@H](O)C3)c2n1
pEC50 (HepG2 [1]): 7.30

C=C1[C@H](CO)[C@@H](O)C[C@@H]1n1cnc2c(=O)[nH]c(N)nc21 [ENTECAVIR]
CC50 (CEM-SS [2]): 21 µM
pEC50 (CEM-SS [3]): < 5.00
CC50 (Hepatitis B virus [4]): 21 µM
pEC50 (Hepatitis B virus [5]): 8.52
pEC50 (HFF): 4.82
CC50 (HepG2 [6]): 30 µM
pEC50 (HepG2 [1]): 8.52
pEC50 [7]: < 4.10
CC50 [8]: 78 µM
CC50 (WI-38 [9]): > 90 µM
CC50 (WI-38 [10]): 120 µM
pEC50 (WI-38 [11]): ≤ 4.49
pEC50 (WI-38 [12]): 4.52

C=C1[C@H](CO)[C@@H](O)C[C@@H]1n1cnc2c(N)ncnc21
pEC50 (HepG2 [1]): 6.89
